Reference: patent publication US20240185961A1, “DRUG MATERIAL INTERACTIONS USING QUARTZ CRYSTAL MICROBALANCE SENSORS” (Janssen Biotech, Inc., priority 2021, published 2024)

Columns and labels:
Assay type in all cases: physicochemical
[1] = QCM-D adsorption to PVC sensor surface; conditions: protein 3 formulation, PS20-poor solution, average, 95% CI±33.7%
Description: (§1) The experiments detailed below were informed using quartz sensors coated with various surface compositions such as PVC, PE, PES, PVDF, PC, or PP. These sensors can be pre and post-run cleaned, for example, by way of a 30 min soak in 1% Deconex 11 Solution, a minimum 2 hr soak in DI water (usually overnight), followed by a rinse with DI water and 99% ethanol three times and then blown dry by medical grade nitrogen gas. The sensors were then inserted into a QCM unit as was sample solution, diluent (e.g., NS), and water. Runs were configured and data and procedures were collected. Experimental data was then transformed from frequency to mass data using, for example, the above equations. […]
(§2) In one experimental run, over 60 sensorgrams (i.e., the outputs of the QCM-D instruments) were analyzed and transformed from frequency to mass adsorption data in the aforementioned example. Here the mass adsorbed during the sample period was of primary interest, and the mass during this period was measured by subtracting the average mass recorded and calculated during the diluent period where an ionic liquid had effect on resonance (period 2 above/520 in FIG. 5) from the average mass shift recorded and calculated during the sample period (period 3 above/530 in FIG. 5). […]

[2] = QCM-D adsorption to PES sensor surface; conditions: protein 3 formulation, PS20-poor solution, average, 95% CI±5.2%
Description: as §1, §2

[3] = QCM-D adsorption, PS20 only runs, PVC and PES sensor surfaces pooled; conditions: all at the same concentration, protein 3 experiments, 95% CI±19.77 ng/sq cm
Description: as §1, §2

## polysorbate 20 [PS20]
[1]
  PS20 contribution to mass of layer at the surface: 35.56%
[2]
  PS20 contribution to mass of layer at the surface: 12.22%
[3]
  average mass contribution, PS20 only runs: 40.20 ng/sq cm
